Where a SMILES comes first, the peptide text is derived from it. [ ]: non-standard residue; d: D form. The star is where a group is joined. Sta = CC(C)C[C@H](N)[C@@H](O)CC(=O)O; Isovaleryl = CC(C)CC(=O)*
Assays:
MCF-7 cells [1] = assay: Western blot of LC3-II levels, MCF-7 cells; assay type: cell-based, human; conditions: for TPCK-induced accumulation of LC3-II: co-incubation with E64d and pepstatin A together
HT-29 cells [2] = assay: Western blot of LC3-II levels, HT-29 cells; assay type: cell-based, human; conditions: for TPCK-induced accumulation of LC3-II: co-incubation with E64d and pepstatin A together
MCF-7 cells [3] = assay: Cell death by trypan blue staining, MCF-7 cells; assay type: cell-based, human; conditions: for TPCK or tamoxifen-induced cell death on addition of autophagy inhibitor: 50 nM bafilomycin A1, 5 mM 3-Methyladenine or combination of 10 m/ml pepstatin with 10 m/ml E64-d
Procedure: (§1) The human breast cancer MCF-7 cell line was cultured in DMEM (Invitrogen, 41965) supplemented with 10% FBS (Beit Haemek, 04-121-1A), 300 mg/l L-glutamine (Beit Haemek, 03-020-1B), 100 U/ml penicillin, 100 μg/ml streptomycin and 12.5 U/ml nystatin (Beit Haemek, 03-032-1B) and 100 U/ml recombinant human insulin (Beit Haemek, 01-818-1H), at 37° C. in 5% CO2.
(§2) Cells were plated in 24-wells plate or 96-well plates at a concentration of 5·10^4 cells/ml. A day later the cells were treated with different concentrations of tamoxifen or TPCK as indicated below.

[4] = system: alpha-1-antitrypsin (AAT)
[5] = target: alpha-1-antitrypsin (AAT) (Homo sapiens, UniProt P01009); assay: Interaction assay between AAT and TRFCK (SDS-PAGE fluorescence, Western blot); assay type: binding
alpha-1-antitrypsin (AAT) (Homo sapiens, UniProt P01009), sequence (P01009 25-418): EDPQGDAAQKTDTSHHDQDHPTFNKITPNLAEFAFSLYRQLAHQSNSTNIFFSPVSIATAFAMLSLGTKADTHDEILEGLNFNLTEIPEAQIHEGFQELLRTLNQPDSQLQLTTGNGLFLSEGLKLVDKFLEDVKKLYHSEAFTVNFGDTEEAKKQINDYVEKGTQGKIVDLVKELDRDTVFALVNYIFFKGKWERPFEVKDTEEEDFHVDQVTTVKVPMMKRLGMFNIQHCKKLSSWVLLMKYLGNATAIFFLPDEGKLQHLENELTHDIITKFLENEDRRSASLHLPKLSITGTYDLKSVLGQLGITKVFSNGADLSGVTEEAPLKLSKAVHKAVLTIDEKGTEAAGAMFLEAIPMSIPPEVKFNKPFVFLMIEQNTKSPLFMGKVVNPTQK
Procedure: 2 μg/μl AAT was incubated in vitro with 50 μM TRFCK in 37° c. for 30 min. After the incubation time the sample was subjected to 10% SDS-PAGE before being transferred to polyvinylidene difluoride (PVDF) membranes. At the end of the transfer the membrane was analyzed under UV lamp to track TRFCK fluorescence. The sample was then exposed to primary antibody anti-AAT. The secondary antibody was an HRP-conjugated anti-goat IgG (Jackson ImmunoResearch, USA) The membrane was then visualized using an ECL+plus Western Blotting Detection System.
AAT was incubated in vitro with 50 μM TRFCK (a fluorescence analog of TPCK, N-tosyl-L-phenylalanine chloromethyl ketone) in 37° C. for 30 min. Following incubation, the sample was applied to SDS-PAGE electrophoresis and transferred to PVDF membrane. Thereafter, the membrane was analyzed under UV lamp to track TRFCK fluorescence (FIG. 2, track 1). In addition, Western blot analysis was performed using the same membrane with an antibody against AAT (FIG. 2, track 2).

MCF-7 cells [6] = assay: Western blot of intracellular AAT level, MCF-7 cells; assay type: cell-based, human; conditions: MCF-7 cell lysates; TPCK 50 μM, tamoxifen 10 μM; 1-3 hr treatment
Procedure: (§3) Normal or treated 10^7 cells were collected, washed twice with ice-cold PBS and resuspended in 0.5 ml ice-cold lysing buffer (50 mM Tris-HCl pH 7.5, 0.1% NP-40, 1 mM DTT, 0.25M sucrose, 2 mM MgCl2). The cells were broken by politron (4 cycles of 7 sec) and the cell debris pelleted by centrifugation in an ultracentrifuge at 120,000×g for 30 min, at 4° C. The supernatant was used immediately or stored at −70° C. Protein content of each sample was determined with BioRad reagent according to Bradford's method using bovine serum albumin (BSA) as standard. Equal amounts of protein samples (40 μg/lane) were subjected to 10% SDS-PAGE before being transferred to polyvinylidene difluoride (PVDF) membranes. The samples were then exposed to the following primary antibodies: goat anti-AAT and goat anti-actin (Santa Cruz Biotechnology, Santa Cruz, Calif.) polyclonal antibody. The secondary antibody was an HRP-conjugated anti-goat IgG (Jackson ImmunoResearch, USA). The membranes were blocked with 5% skin milk/Tris-buffered saline containing 0.1% Tween-20 (TBST) at room temperature for 1 h, after which the samples were incubated overnight at 4° C. with each of the above primary antibodies. The membranes were then washed three times with TBST, followed by 1 h incubation at room temperature with the secondary antibody. […]

HT-29 cells [7] = assay: Western blot of intracellular AAT level, HT-29 cells; assay type: cell-based, human; conditions: HT-29 cell lysates; TPCK 50 μM, tamoxifen 10 μM; 1-3 hr treatment
Procedure: as §3

AAT = AAT (Homo sapiens, UniProt P01009); assay: AAT inhibition of trypsin activity (BAEE cleavage); assay type: biochemical; conditions: TPCK added to AAT and trypsin; P<0.001 compared with control
AAT, sequence (P01009 25-418): as above
Procedure: (§4) Trypsin activity was determined according to Bergmeyer et. al. (Bergmeyer, H. U., Gawehn, K. and Grassl, M. (1974) in Methods of Enzymatic Analysis (Bergmeyer, H. U. ed.) Volume 1, 2nd ed., 516-517, Academic Press, New York, N.Y.). All assays were set up at a total volume of 1 ml by adding 65 μl trypsin at final amount of 1.625 μg, 0.23 mM Na-benzoyl-L-arginine ethyl ester (BAEE) as substrate in 63 mM sodium phosphate, in the presence or absence of 100 μM or 125 μM AAT with or without different concentration of TPCK. Trypsin activity was measured by the cleavage of the substrate BAEE by measuring absorbance at 253 nm.

trypsin = assay: Trypsin activity assay (BAEE cleavage); assay type: biochemical; conditions: substrate BAEE, absorbance at 253 nm
Procedure: as §4

MCF-7 cells [8] = assay: Labeling of autophagic vacuoles with monodansylcadaverine (MDC), MCF-7 cells; assay type: cell-based, human; conditions: for MDC uptake in cells treated with TPCK: MCF-7 cells treated with TPCK, 3 MA 5 mM or bafilomycin A1 50 nM, 24 hours
Procedure: as §1, §2
(§5) Following treatment, the cells were incubated with 0.05 mM MDC in PBS at 37° C. for 10 minutes (Biederbick et al., Eur J Cell Biol. 1995 January; 66(1):3-14). Intracellular MDC was measured by fluorescence photometry (excitation wavelength 380 nm, emission filter 525 nm) in a TECAN SPECTRA Fluor Plus microplate reader. The MDC fluorescence intensity was correlated to cell density as measured by XTT reduction assay performed in parallel treated samples. The results are expressed as fluorescence/cell.
(§6) For visualization of MDC-labeled vacuoles, cells were grown on coverslips, incubated with 0.05 mM MDC at 37° C. for 10 minutes. After incubation, cells were washed four times with PBS and immediately analyzed by fluorescence microscopy.

HT-29 cells [9] = assay: Labeling of autophagic vacuoles with monodansylcadaverine (MDC), HT-29 cells; assay type: cell-based, human; conditions: HT-29 cells treated with TPCK for 24 hours
Procedure: HT-29 colorectal adenocarcinoma cells were cultured in RPMI 1640 (Invitrogene, 21875) supplemented with 10% FBS, 300 mg/l L-glutamine, 100 U/ml penicillin, 100 μg/ml streptomycin and 12.5 U/ml nystatin at 37° C. in 5% CO2.
as §2, §5, §6

[10] = system: GFP-LC3 transfected MCF-7 cells; assay: GFP-LC3 imaging of transfected MCF-7 cells; assay type: cell-based, human; conditions: TPCK 50 μM, 24 hours

CCOC(=O)[C@H]1O[C@@H]1C(=O)N[C@@H](CC(C)C)C(=O)NCCC(C)C [E64d]
TPCK-induced accumulation of LC3-II (MCF-7 cells [1]): enhanced TPCK-induced accumulation of LC3-II | TPCK-induced accumulation of LC3-II (HT-29 cells [2]): enhanced TPCK-induced accumulation of LC3-II | TPCK or tamoxifen-induced cell death on addition of autophagy inhibitor (MCF-7 cells [3]): reduced TPCK or tamoxifen-induced cell death

trypsin
trypsin activity (cleavage of the substrate BAEE, absorbance at 253 nm) [4]: AAT inhibits trypsin activity

CC/C(=C(\c1ccccc1)c1ccc(OCCN(C)C)cc1)c1ccccc1 [tamoxifen]
competition with TRFCK on binding to AAT [5]: not able to compete with TRFCK on binding to AAT | AAT level as compared to actin (MCF-7 cells [6]): AAT level decreased | AAT level as compared to actin (HT-29 cells [7]): AAT level decreased | cell death by trypan blue staining (MCF-7 cells [3]): induced cell death

CC(C)CC(=O)N[C@H](C(=O)N[C@H](C(=O)N[C@@H](CC(C)C)[C@@H](O)CC(=O)N[C@@H](C)C(=O)N[C@@H](CC(C)C)[C@@H](O)CC(=O)O)C(C)C)C(C)C [pepstatin A] (Isovaleryl-VV[Sta]A[Sta]-OH)
TPCK-induced accumulation of LC3-II (MCF-7 cells [1]): enhanced TPCK-induced accumulation of LC3-II | TPCK-induced accumulation of LC3-II (HT-29 cells [2]): enhanced TPCK-induced accumulation of LC3-II | TPCK or tamoxifen-induced cell death on addition of autophagy inhibitor (MCF-7 cells [3]): reduced TPCK or tamoxifen-induced cell death

N-tosyl-L-phenylalanine chloromethyl ketone [TPCK]
LC3-II by western blot (MCF-7 cells [1]; TPCK 50 μM, different times): appearance of LC3-II | AAT inhibition of trypsin activity (AAT): the inhibition by AAT was abolished | LC3-II by western blot (HT-29 cells [2]; TPCK 50 μM, different times): appearance of LC3-II | trypsin activity (trypsin): did not inhibit the trypsin activity | MDC fluorescence intensity, number and size of MDC-labeled vesicles (MCF-7 cells [8]; MCF-7 cells treated with TPCK for 24 hours): dose dependent increase in fluorescence intensity | AAT level as compared to actin (MCF-7 cells [6]): AAT level decreased | MDC fluorescence intensity, number and size of MDC-labeled vesicles (HT-29 cells [9]): dose dependent increase in fluorescence intensity | AAT level as compared to actin (HT-29 cells [7]): AAT level decreased | GFP-LC3 label (number of autophagosomes) [10]: accumulation of this label | cell death by trypan blue staining (MCF-7 cells [3]): induced cell death

AAT: plasma-derived protein of the serine proteinase inhibitor family; recombinant AAT added to cells
trypsin activity (trypsin): inhibits trypsin activity | autophagy induced by TPCK and tamoxifen, assessed by MDC staining (MCF-7 cells [8]; MCF-7 cells, AAT added prior to induction by TPCK (50 μM, 24 h) or tamoxifen (5 μM, 72 h)): reduction in autophagy | cell death induced by TPCK and tamoxifen, determined by trypan blue staining (MCF-7 cells [3]; AAT added prior to induction by TPCK (50 μM, 24 h) or tamoxifen (5 μM, 72 h)): reduction

CO/C1=C\C(C)=C\[C@@H](C)[C@@H](O)[C@@H](C)C/C(C)=C/C=C/[C@H](OC)[C@@H]([C@@H](C)[C@@H](O)[C@H](C)[C@@]2(O)C[C@@H](O)[C@H](C)[C@@H](C(C)C)O2)OC1=O [bafilomycin A1]
MDC uptake in cells treated with TPCK (MCF-7 cells [8]): suppressed MDC uptake | TPCK or tamoxifen-induced cell death on addition of autophagy inhibitor (MCF-7 cells [3]): reduced TPCK or tamoxifen-induced cell death

Cn1cnc(N)c2ncnc1-2 [3-Methyladenine]
MDC uptake in cells treated with TPCK (MCF-7 cells [8]): suppressed MDC uptake | TPCK or tamoxifen-induced cell death on addition of autophagy inhibitor (MCF-7 cells [3]): reduced TPCK or tamoxifen-induced cell death
